From PubChem BioAssay (NCI) come the findings set out here.

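Protocol summary: plate cells (96-well), add compound at 5 concentrations, incubate 48 h, interpolate endpoints linearly. GI50 marks 50% less growth. TGI marks complete inhibition of growth.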

Some test systems named below: SW-620 colon; MDA-MB-231 breast; HCT-15 colon; SK-MEL-2 melanoma; M14 melanoma; SN12C renal; MCF7 breast; OVCAR-3 ovarian; SNB-75 CNS; MDA-MB-435.
Holding throughout (assay): DTP human tumour cell line panel, 48 h

As to `CSc1nc2c(c(=O)n1C)CN(C1CCCCC1)C(=O)C(c1ccccc1)N2` (stereo not given), the GI50 in the experiment with SW-620 colon was 38.5 µM; with MDA-MB-231 breast it was 27.4 µM; in the experiment with HCT-15 colon it was 16.1 µM; in the experiment with SK-MEL-2 melanoma, 26.2 µM; in the experiment with M14 melanoma, 43.5 µM; with SN12C renal it was 36 µM. Besides, the GI50 with MCF7 breast is 19.3 µM; in the experiment on OVCAR-3 ovarian, 20.1 µM; with SNB-75 CNS, 95.8 µM; in the experiment on MDA-MB-435, 19.1 µM. Besides, the total growth inhibition concentration (TGI) in the experiment with SW-620 colon, in the experiment on MDA-MB-231 breast, in the experiment on HCT-15 colon, in the experiment with SK-MEL-2 melanoma, with M14 melanoma and in the experiment on SN12C renal was > 100 µM each time. Moreover, the TGI is 66 µM in the experiment with MCF7 breast, 82 µM in the experiment with OVCAR-3 ovarian, > 100 µM with SNB-75 CNS and > 100 µM in the experiment on MDA-MB-435.

Take `CCN(CC)CCCC(C)N/C(=C1\C(=O)NC(=O)\C1=C(/NC(C)CCCN(CC)CC)c1cccc(OC)c1)c1cccc(OC)c1` (stereo not given): the GI50 with SW-620 colon is 0.512 µM; in the experiment on MDA-MB-231 breast it was 0.574 µM; in the experiment with HCT-15 colon, 0.764 µM; with SK-MEL-2 melanoma it was 0.947 µM; in the experiment on M14 melanoma, 0.932 µM; with SN12C renal, 1.27 µM. In addition, the GI50 in the experiment on MCF7 breast was 1.03 µM; in the experiment with OVCAR-3 ovarian, 1.12 µM; in the experiment on SNB-75 CNS, 0.735 µM; in the experiment with MDA-MB-435, 0.803 µM. The TGI with SW-620 colon amounted to 3.65 µM; with MDA-MB-231 breast, 1.47 µM; in the experiment with HCT-15 colon it was 4.07 µM; with SK-MEL-2 melanoma it was 1.8 µM; in the experiment on M14 melanoma it was 1.75 µM; in the experiment with SN12C renal it was 7.03 µM. In addition, the TGI in the experiment on MCF7 breast turned out to be 3.56 µM; in the experiment on OVCAR-3 ovarian, 3.2 µM; in the experiment on SNB-75 CNS, 1.67 µM; in the experiment on MDA-MB-435 it was 1.52 µM.

`CC(=O)NNc1nc(C)c(C(/C=C/c2ccccc2O)=N/N=C(N)N)s1`: the TGI in the experiment on SW-620 colon, in the experiment on MDA-MB-231 breast, in the experiment on HCT-15 colon, in the experiment with SK-MEL-2 melanoma, in the experiment with M14 melanoma and in the experiment with SN12C renal was > 100 µM in each case. In addition, the TGI in the experiment with MCF7 breast, in the experiment on OVCAR-3 ovarian, in the experiment with SNB-75 CNS and with MDA-MB-435 was > 100 µM each time.

For the compound `Cc1cn(Cc2ccc(C34CC5CC(CC(C5)C3)C4)c(O)c2)c(=O)[nH]c1=O`, the GI50 with SW-620 colon was 8.59 µM; in the experiment with MDA-MB-231 breast, 15.5 µM; in the experiment on HCT-15 colon, 7.99 µM; in the experiment on SK-MEL-2 melanoma it was 14.1 µM; in the experiment on M14 melanoma, 11.5 µM; in the experiment on SN12C renal, 12.3 µM. In addition, the GI50 was 7.96 µM with MCF7 breast, 4.04 µM with OVCAR-3 ovarian, 11.2 µM in the experiment with SNB-75 CNS and 2.62 µM with MDA-MB-435. Moreover, the TGI in the experiment on SW-620 colon turned out to be 20.9 µM; in the experiment on MDA-MB-231 breast, 31 µM; with HCT-15 colon, 20.5 µM; with SK-MEL-2 melanoma, 32.2 µM; in the experiment on M14 melanoma, 26.9 µM; with SN12C renal it was 25.4 µM. The total growth inhibition concentration (TGI) in the experiment on MCF7 breast was determined as 72.9 µM; in the experiment on OVCAR-3 ovarian, 16.3 µM; in the experiment on SNB-75 CNS, 29.6 µM; with MDA-MB-435, 9.02 µM.

With `Cc1cc2c(-c3nc4ccccn4c3N)c(O)c(O)cc2c(O)c1-c1c(C)cc2c(-c3nc4ccccn4c3N)c(O)c(O)cc2c1O`, the GI50 in the experiment with SW-620 colon is 0.988 µM; in the experiment with MDA-MB-231 breast it was 3.11 µM; in the experiment on HCT-15 colon, 0.58 µM; with SK-MEL-2 melanoma, 0.961 µM; with M14 melanoma, 1.18 µM; in the experiment on SN12C renal, 0.82 µM. Also, the GI50 in the experiment on MCF7 breast is 0.606 µM; with OVCAR-3 ovarian, 1.36 µM; in the experiment with SNB-75 CNS it was 1.02 µM; in the experiment with MDA-MB-435 it was 0.716 µM. Further, the TGI with SW-620 colon was > 25 µM; in the experiment on MDA-MB-231 breast it was > 25 µM; in the experiment with HCT-15 colon, > 25 µM; in the experiment on SK-MEL-2 melanoma it was 23.4 µM; in the experiment with M14 melanoma it was > 25 µM; with SN12C renal it was > 25 µM. Moreover, the TGI with MCF7 breast, with OVCAR-3 ovarian, with SNB-75 CNS and in the experiment on MDA-MB-435 was > 25 µM throughout.

Regarding `Nc1nc(/C=C\c2ccccc2)nc(N2CCN(c3ccccc3)CC2)n1`, the GI50 in the experiment with SW-620 colon was 36.3 µM; in the experiment on MDA-MB-231 breast, 19.2 µM; with HCT-15 colon, 16.3 µM; in the experiment with SK-MEL-2 melanoma it was 32.5 µM; in the experiment on M14 melanoma, 30.2 µM; in the experiment with SN12C renal, 18.2 µM. Also, the GI50 was 26.5 µM in the experiment with MCF7 breast, 28.2 µM with OVCAR-3 ovarian, 22.2 µM with SNB-75 CNS and 28.4 µM with MDA-MB-435. The concentration for total growth inhibition (TGI) was > 100 µM in the experiment with SW-620 colon; 53.4 µM with MDA-MB-231 breast; 78 µM with HCT-15 colon; 91.7 µM with SK-MEL-2 melanoma; > 100 µM with M14 melanoma; 38.6 µM in the experiment on SN12C renal. Further, the TGI amounted to 84.1 µM with MCF7 breast, 57.5 µM with OVCAR-3 ovarian, 69.4 µM in the experiment on SNB-75 CNS and 70.2 µM in the experiment on MDA-MB-435.

In the case of `O=C(NCC1CCCO1)c1ccc(NC2=C(Cl)C(=O)N(Cc3ccccc3)C2=O)cc1` (stereo not given), the GI50 in the experiment on SW-620 colon is 5.95 µM; with MDA-MB-231 breast, 16.8 µM; with HCT-15 colon it was 19 µM; in the experiment with SK-MEL-2 melanoma it was 17.5 µM; in the experiment with M14 melanoma, 11.2 µM; with SN12C renal, 0.0654 µM. Besides, the GI50 was 4.39 µM in the experiment with MCF7 breast, 3.18 µM in the experiment on OVCAR-3 ovarian, 20 µM in the experiment on SNB-75 CNS and 9.33 µM with MDA-MB-435. Moreover, the TGI in the experiment on SW-620 colon is 42.8 µM; in the experiment on MDA-MB-231 breast, 46.6 µM; in the experiment on HCT-15 colon, 62.3 µM; in the experiment with SK-MEL-2 melanoma it was 34.7 µM; with M14 melanoma, 23.4 µM; in the experiment on SN12C renal it was 7.32 µM. Besides, the TGI in the experiment with MCF7 breast came out at 26.6 µM; in the experiment on OVCAR-3 ovarian, 10.7 µM; in the experiment on SNB-75 CNS, 39.3 µM; in the experiment on MDA-MB-435 it was 21.7 µM.

As usually defined, the GI50 is the concentration at which growth is held to half of that of the control. By TGI is commonly meant the concentration at which net growth stops.
